Experimental data as given in patent US7414058B2, “Adenosine A2a receptor antagonists for the treatment of extra-pyramidal syndrome and other movement disorders” (Schering Corporation, priority 2002, dated 2008).

Test system: haloperidol-induced EPS in Cebus apella monkeys
Test: Haloperidol-induced EPS in sensitized Cebus apella monkeys
Assay type: in vivo
Conditions: for monkeys in which onset of EPS was prevented: group of seven monkeys
Protocol: A more complete understanding of the invention may be obtained by reading the following description in conjunction with the appended figures relating to haloperidol-induced EPS in Cebus apella monkeys.
Compound A was administered orally (p.o.) at doses of 0.3-30 mg/kg, in conjunction with haloperidol. The studies were conducted using a within-subjects design such that each monkey received all 6 treatments (vehicle and 5 doses of Compound A) in a crossover, balanced design.

[1] = 1 mg/kg p.o., haloperidol 0.3 mg/kg p.o.
[2] = 10 and 30 mg/kg p.o., haloperidol 0.3 mg/kg p.o.

Nc1nc2c(cnn2CCN2CCN(c3ccc(F)cc3F)CC2)c2nc(-c3ccco3)nn12 [Compound A]
monkeys in which onset of EPS was prevented [1]: one
delay of the onset of EPS [1]: 1 h
monkeys in which onset of EPS was prevented (3 mg/kg p.o., haloperidol 0.3 mg/kg p.o.): two
delay of the onset of EPS (3 mg/kg p.o., in the remaining monkeys, haloperidol 0.3 mg/kg p.o.): ~2 h
monkeys in which onset of EPS was prevented [2]: three
delay of the onset of EPS (average) [2]: 2.3 to 2.9 h
maximum EPS score (Compound A 0.3-30 mg/kg p.o. with haloperidol 0.3 mg/kg p.o., FIG. 1A, seven monkeys, crossover): dose-dependent reduction
delay in the onset of EPS (dose dependence) (Compound A 0.3-30 mg/kg p.o. with haloperidol 0.3 mg/kg p.o., FIG. 1B, vs vehicle): dose-dependent delay
